The values that follow come from patent US12357603B2, “Acyl sulfonamides for treating cancer” (Bayer Aktiengesellschaft, priority 2019, dated 2025).

Each structure is given as a SMILES string. Like-named read-outs stand apart in the source and are kept apart here. A value given as a limit tells only on which side of the number the result lay.

In assay [1] the target is Recombinant human GST-tagged Kat6b protein (431-end). Put plainly: Kat6b activity assay (TR-FRET, acetylation of biotinylated Histone-H4-derived peptide). To be noted: 30 mins at 22° C., read-out: KAT6B activity assay IC50 [mol/l] (arithmetic mean). The class given is biochemical. As for the experimental part:
Kat6b inhibitory activities of the compounds described in the present invention were quantified using a Fluorescence Resonance Energy Transfer (TR-FRET) assay which measures acetylation of a synthetic, biotinylated Histone-H4-derived peptide by the enzyme.
In this case 50 nl DMSO were used instead of compounds. […] IC50 values were determined by regression analysis based on a 4 parameter equation (minimum, maximum, ICM, Hill; Y=Max+(Min−Max)/(1+(X/ICso) Hill) using the Screener Software (Genedata).

Assay [2] deals with ESR1 transcription (luciferase signal in MVLN cells). Put plainly: Repression of ESR1 transcription, luciferase reporter in MVLN cells. To be noted: inhibition of luciferase signal in MVLN cells, arithmetic mean. The class given is cell-based. In outline:
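MVLN cells (constitutive ER, stably carrying a Vitellogenin A2 hormone-responsive element–luciferase reporter) treated in duplicate; luciferase read after 24 h. Cell density checked by Alamar Blue fluorescence (530/590 nm) after 2 h to exclude cell-loss effects.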

Assay [3] deals with Recombinant human His-tagged Kat6a protein (amino acids 194-810) (Homo sapiens (Human), UniProt Q92794). Put plainly: Kat6a activity assay (TR-FRET, acetylation of biotinylated Histone-H4-derived peptide). Format: biochemical. To be noted: 60 mins at 22° C., read-out: KAT6A-DPF/HAT domain IC50 [mol/l] (arithmetic mean). The procedure, abridged:
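Sf9-expressed human His-Kat6a (aa 194-810) incubated 60 min at 22 °C with compounds (0.01-20 μM) in Tris pH 8 buffer containing 220 nM biotinylated H4 peptide (aa 1-24) and 600 nM acetyl-CoA. Acetyl-K8 detected by TR-FRET (665/620 nm ratio); IC50 by four-parameter fit versus DMSO controls.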

The subject of the next assay is ZR-75-1 cells. As to the kind of experiment: Proliferation assay ZR-75-1 (Alamar Blue, 144 h). Format: cell-based. The conditions noted are these: arithmetic mean, read-out: ZR75-1 proliferation assay, EC50 [M] (arithmetic mean). In outline: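 Cells seeded at 3000/well in RPMI 1640 with 2.5% FBS and treated 24 h later across 2.0×10E-5 to 2.0×10E-9 M (9 dilutions, 0.2% DMSO, triplicate). After 144 h at 37 °C, 5% CO2, viability read by Alamar Blue fluorescence at 590 nm following 2 h reagent incubation.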
On the technique in general: Resazurin is reduced to fluorescent resorufin, in cell work by metabolically active cells.

In another assay the test system is MDA-MB-436 cells. Put plainly: Proliferation assay MDA-MB-436, negative control cell line (Alamar Blue, 144 h). The class given is cell-based. The conditions noted are these: arithmetic mean. The procedure, abridged:
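MDA-MB-436 cells (3000/well, DMEM/Ham's F12 with 2.5% FBS) treated 24 h after plating with compounds at 2.0×10E-5 to 2.0×10E-9 M (9 dilutions, 0.2% DMSO), triplicates, 144 h at 37 °C, 5% CO2. Viability by Alamar Blue, 2 h, fluorescence at 590 nm.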

Where [4] appears, read: Homo sapiens, MDA-MB-436, 144 h.

Recombinant human His-tagged Kat6a protein (amino acids 194-810), sequence (Q92794 194-810): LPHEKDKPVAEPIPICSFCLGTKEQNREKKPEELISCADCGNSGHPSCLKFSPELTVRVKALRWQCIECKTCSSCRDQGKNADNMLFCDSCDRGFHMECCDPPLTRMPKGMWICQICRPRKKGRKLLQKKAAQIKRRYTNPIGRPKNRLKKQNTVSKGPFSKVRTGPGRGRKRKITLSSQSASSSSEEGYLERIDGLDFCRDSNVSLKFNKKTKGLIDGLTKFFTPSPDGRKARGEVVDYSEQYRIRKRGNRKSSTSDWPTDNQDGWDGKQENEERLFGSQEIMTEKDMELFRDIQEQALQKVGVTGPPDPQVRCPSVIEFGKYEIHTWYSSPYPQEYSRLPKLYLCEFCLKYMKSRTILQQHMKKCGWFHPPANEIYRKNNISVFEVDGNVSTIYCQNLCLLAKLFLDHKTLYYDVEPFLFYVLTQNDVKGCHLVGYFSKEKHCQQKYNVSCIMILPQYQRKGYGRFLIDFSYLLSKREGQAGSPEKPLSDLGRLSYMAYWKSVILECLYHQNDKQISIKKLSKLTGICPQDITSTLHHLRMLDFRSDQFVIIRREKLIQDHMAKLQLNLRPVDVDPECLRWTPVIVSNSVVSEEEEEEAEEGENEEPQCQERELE

With `CN(c1ccccc1)c1ccc2cc(C(=O)NS(=O)(=O)c3ccccc3-c3ccccc3)oc2c1` [Example 10, 6-(N-Methylanilino)-N-(2-phenylphenyl)sulfonyl-benzofuran-2-carboxamide], the IC50 in assay [1] was 1.49 µM; in assay [2] (Homo sapiens, MVLN), 13.6 µM; in assay [3], 0.9 µM.

With `CN(C)c1cc(F)c2cc(C(=O)NS(=O)(=O)c3ccccc3-c3ccccc3)oc2c1` [Example 12, N-([1,1′-Biphenyl]-2-sulfonyl)-6-(dimethylamino)-4-fluoro-1-benzofuran-2-carboxamide], the IC50 stood at 0.0182 µM in assay [1]; 0.0617 µM in assay [2] (Homo sapiens, MVLN); 0.0133 µM in assay [3]. In the assay with ZR-75-1 cells (Homo sapiens, ZR-75-1, 144 h), the EC50 stood at 5.72e-08 M.

Regarding `CN(C)c1ccc2cc(C(=O)NS(=O)(=O)c3ccc(-c4ccccc4)cc3)oc2c1` [Example 15, N-([1,1′-biphenyl]-4-sulfonyl)-6-(dimethylamino)-1-benzofuran-2-carboxamide], the IC50 was found to be 0.235 µM in assay [1]; 5 µM in assay [2] (Homo sapiens, MVLN); 0.112 µM in assay [3]. Moreover, the EC50 with ZR-75-1 cells (Homo sapiens, ZR-75-1, 144 h) amounted to 4.28e-06 M.

Regarding `CN(C)c1ccc2cc(C(=O)NS(=O)(=O)c3cccc4c3OCC4)oc2c1` [Example 30, N-(2,3-Dihydro-1-benzofuran-7-sulfonyl)-6-(dimethylamino)-1-benzofuran-2-carboxamide], the IC50 in assay [1] is 0.497 µM; in assay [2] (Homo sapiens, MVLN), more than 20 µM; in assay [3] it was 0.137 µM.

For `Cc1ccc2cccc(S(=O)(=O)NC(=O)c3cc4cc(F)c(N(C)C)cc4o3)c2n1` [Example 197, 6-(Dimethylamino)-5-fluoro-N-((2-methylquinolin-8-yl)sulfonyl)benzofuran-2-carboxamide], the EC50 with MDA-MB-436 cells (setting [4]) is more than 20 µM; with ZR-75-1 cells (Homo sapiens, ZR-75-1, 144 h), 2.84e-06 M. The IC50 in assay [2] (Homo sapiens, MVLN) is 1.27 µM; in assay [3], 0.894 µM.

Turning to `CCOc1ccccc1S(=O)(=O)NC(=O)c1cc2cc(F)c(N(C)C)cc2o1` [Example 198, 6-(Dimethylamino)-N-((2-ethoxyphenyl)sulfonyl)-5-fluorobenzofuran-2-carboxamide], the EC50 in the assay with MDA-MB-436 cells (setting [4]) was more than 20 µM; in the assay on ZR-75-1 cells (Homo sapiens, ZR-75-1, 144 h) it was 7.2e-06 M. Moreover, the IC50 in assay [2] (Homo sapiens, MVLN) came to 2.32 µM; in assay [3], 4.06 µM.

With `CN(C)c1cc2oc(C(=O)NS(=O)(=O)c3ccccc3-c3ccccc3)cc2cc1F` [Example 199, N-([1,1′-biphenyl]-2-ylsulfonyl)-6-(dimethylamino)-5-fluorobenzofuran-2-carboxamide], the EC50 with MDA-MB-436 cells (setting [4]) is more than 20 µM; in the assay with ZR-75-1 cells (Homo sapiens, ZR-75-1, 144 h), more than 2e-05 M. Moreover, the IC50 in assay [2] (Homo sapiens, MVLN) is 9.4 µM; in assay [3], 2.65 µM.

As to `CCOc1ccccc1S(=O)(=O)NC(=O)c1cc2cc(C)c(N(C)C)cc2o1` [Example 200, 6-(Dimethylamino)-N-(2-ethoxybenzene-1-sulfonyl)-5-methyl-1-benzofuran-2-carboxamide], the EC50 was more than 20 µM in the assay with MDA-MB-436 cells (setting [4]) and more than 2e-05 M in the assay on ZR-75-1 cells (Homo sapiens, ZR-75-1, 144 h). In addition, the IC50 in assay [2] (Homo sapiens, MVLN) was more than 20 µM; in assay [3] it was 6.74 µM.

For `CN(C)c1ccc2cc(C(=O)NS(=O)(=O)c3ccccc3-c3ccccc3)oc2c1Br` [Example 203, N-([1,1′-biphenyl]-2-sulfonyl)-7-bromo-6-(dimethylamino)-1-benzofuran-2-carboxamide], the EC50 was more than 20 µM with MDA-MB-436 cells (setting [4]) and more than 2e-05 M in the assay on ZR-75-1 cells (Homo sapiens, ZR-75-1, 144 h). Moreover, the IC50 in assay [2] (Homo sapiens, MVLN) is more than 20 µM; in assay [3], 8.38 µM.

Turning to `CCOc1ccccc1S(=O)(=O)NC(=O)c1cc2cc(C#N)c(N(C)C)cc2o1` [Example 204, 5-Cyano-6-(dimethylamino)-N-(2-ethoxybenzene-1-sulfonyl)-1-benzofuran-2-carboxamide], the EC50 is more than 20 µM with MDA-MB-436 cells (setting [4]) and 6.4e-06 M with ZR-75-1 cells (Homo sapiens, ZR-75-1, 144 h). Further, the IC50 in assay [2] (Homo sapiens, MVLN) amounted to 5.8 µM; in assay [3], 2.59 µM.

In the case of `COCCN(C)c1ccc2cc(C(=O)NS(=O)(=O)c3cccc4ccc(C)nc34)oc2c1` [Example 205, 6-[(2-Methoxyethyl)(methyl)amino]-N-(2-methylquinoline-8-sulfonyl)-1-benzofuran-2-carboxamide], the EC50 stood at 7.61 µM in the assay with MDA-MB-436 cells (setting [4]) and 2.17e-06 M in the assay with ZR-75-1 cells (Homo sapiens, ZR-75-1, 144 h). Besides, the IC50 in assay [2] (Homo sapiens, MVLN) was 2.34 µM; in assay [3], 0.485 µM.

Consider `CN(C)c1cc2oc(C(=O)NS(=O)(=O)c3ccccc3OC3CC3)cc2cc1Br` [Example 207, 5-Bromo-N-[2-(cyclopropyloxy)benzene-1-sulfonyl]-6-(dimethylamino)-1-benzofuran-2-carboxamide], for which the EC50 is more than 20 µM with MDA-MB-436 cells (setting [4]) and more than 2e-05 M in the assay with ZR-75-1 cells (Homo sapiens, ZR-75-1, 144 h). Also, the IC50 in assay [2] (Homo sapiens, MVLN) is 11.8 µM; in assay [3], 6.81 µM.

Take `CCNc1ccc2cc(C(=O)NS(=O)(=O)c3ccccc3-c3ccccc3)oc2c1` [Example 211, N-([1,1′-biphenyl]-2-sulfonyl)-6-(ethylamino)-1-benzofuran-2-carboxamide]: the EC50 with MDA-MB-436 cells (setting [4]) was more than 20 µM; in the assay on ZR-75-1 cells (Homo sapiens, ZR-75-1, 144 h), 1.21e-06 M. For the same compound, the IC50 in assay [2] (Homo sapiens, MVLN) is 4.84 µM; in assay [3], 0.35 µM.

With `CCNc1ccc2cc(C(=O)NS(=O)(=O)c3ccccc3OCC)oc2c1` [Example 212, N-(2-Ethoxybenzene-1-sulfonyl)-6-(ethylamino)-1-benzofuran-2-carboxamide], the EC50 in the assay on MDA-MB-436 cells (setting [4]) was more than 20 µM; in the assay on ZR-75-1 cells (Homo sapiens, ZR-75-1, 144 h), 4.19e-06 M. For the same compound, the IC50 worked out at 9.28 µM in assay [2] (Homo sapiens, MVLN) and 1.13 µM in assay [3].

As to `COCCN(C)c1ccc2cc(C(=O)NS(=O)(=O)c3ccc(C)cc3-c3ccccc3)oc2c1` [Example 214, 6-[(2-Methoxyethyl)(methyl)amino]-N-(5-methyl[1,1′-biphenyl]-2-sulfonyl)-1-benzofuran-2-carboxamide], the EC50 was more than 20 µM in the assay on MDA-MB-436 cells (setting [4]) and 6.14e-06 M in the assay on ZR-75-1 cells (Homo sapiens, ZR-75-1, 144 h). Further, the IC50 in assay [2] (Homo sapiens, MVLN) came to 5.53 µM; in assay [3], 0.732 µM.

With `CCOc1ccccc1S(=O)(=O)NC(=O)c1cc2ccc(N(C)CCOC)cc2o1` [Example 215, N-(2-Ethoxybenzene-1-sulfonyl)-6-[(2-methoxyethyl)(methyl)amino]-1-benzofuran-2-carboxamide], the EC50 is more than 20 µM in the assay with MDA-MB-436 cells (setting [4]) and 1.01e-05 M in the assay on ZR-75-1 cells (Homo sapiens, ZR-75-1, 144 h). Moreover, the IC50 in assay [2] (Homo sapiens, MVLN) stood at 11.8 µM; in assay [3] it was 2.66 µM.

Take `Cc1ccc2cccc(S(=O)(=O)NC(=O)c3cc4cc(Br)c(N(C)C)cc4o3)c2n1` [Example 216, 5-Bromo-6-(dimethylamino)-N-(2-methylquinoline-8-sulfonyl)-1-benzofuran-2-carboxamide]: the EC50 with MDA-MB-436 cells (setting [4]) was more than 20 µM; in the assay with ZR-75-1 cells (Homo sapiens, ZR-75-1, 144 h) it was more than 2e-05 M. Also, the IC50 in assay [2] (Homo sapiens, MVLN) is more than 20 µM; in assay [3], 2.05 µM.

As for `CN(C)c1cc2oc(C(=O)NS(=O)(=O)c3ccccc3-c3ccccc3)cc2cc1Br` [Example 217, N-([1,1′-biphenyl]-2-sulfonyl)-5-bromo-6-(dimethylamino)-1-benzofuran-2-carboxamide], the EC50 in the assay with MDA-MB-436 cells (setting [4]) is more than 20 µM; in the assay on ZR-75-1 cells (Homo sapiens, ZR-75-1, 144 h), 8.13e-06 M. Moreover, the IC50 in assay [2] (Homo sapiens, MVLN) was more than 20 µM; in assay [3], 5.54 µM.

Regarding `CCOc1ccccc1S(=O)(=O)NC(=O)c1cc2cc(Br)c(N(C)C)cc2o1` [Example 218, 5-Bromo-6-(dimethylamino)-N-(2-ethoxybenzene-1-sulfonyl)-1-benzofuran-2-carboxamide], the EC50 in the assay with MDA-MB-436 cells (setting [4]) is more than 20 µM; with ZR-75-1 cells (Homo sapiens, ZR-75-1, 144 h), 8.31e-06 M. Besides, the IC50 came out at 7.9 µM in assay [2] (Homo sapiens, MVLN) and 4.73 µM in assay [3].

Regarding `CCCCOc1ccccc1S(=O)(=O)NC(=O)c1cc2ccc(N(C)CCOC)cc2o1` [Example 219, N-(2-butoxybenzene-1-sulfonyl)-6-[(2-methoxyethyl)(methyl)amino]-1-benzofuran-2-carboxamide], the EC50 in the assay on MDA-MB-436 cells (setting [4]) is more than 20 µM; in the assay on ZR-75-1 cells (Homo sapiens, ZR-75-1, 144 h) it was 6.05e-06 M. Besides, the IC50 came out at 4.06 µM in assay [2] (Homo sapiens, MVLN) and 1.28 µM in assay [3].

For `CCNc1ccc2cc(C(=O)NS(=O)(=O)c3cccc4ccc(C)nc34)oc2c1` [Example 220, 6-(Ethylamino)-N-(2-methylquinoline-8-sulfonyl)-1-benzofuran-2-carboxamide], the EC50 in the assay with MDA-MB-436 cells (setting [4]) is more than 20 µM; in the assay with ZR-75-1 cells (Homo sapiens, ZR-75-1, 144 h) it was 8.91e-07 M. For the same compound, the IC50 in assay [2] (Homo sapiens, MVLN) was determined as 0.716 µM; in assay [3], 0.188 µM.

As to `Cc1ccc2cccc(S(=O)(=O)NC(=O)c3cc4c(F)cc(N(C)C)cc4o3)c2n1` [Example 227], the EC50 was more than 14.9 µM in the assay with MDA-MB-436 cells and 6.85e-08 M in the assay on ZR-75-1 cells. Also, the IC50 is 0.014 µM in assay [2] and 0.004 µM in assay [3].
